Results on one compound are retold here after BindingDB's records for doi:10.1021/acs.jmedchem.0c00774 (Istituto Italiano Di Tecnologia, 2020).

The assay has as its target Prostaglandin G/H synthase 1 (Homo sapiens, UniProt P23219). Kind of assay: Inhibition of human COX1.

pIC50: −log10 of the molar value.

Sequence of Prostaglandin G/H synthase 1 (P23219 whole entry): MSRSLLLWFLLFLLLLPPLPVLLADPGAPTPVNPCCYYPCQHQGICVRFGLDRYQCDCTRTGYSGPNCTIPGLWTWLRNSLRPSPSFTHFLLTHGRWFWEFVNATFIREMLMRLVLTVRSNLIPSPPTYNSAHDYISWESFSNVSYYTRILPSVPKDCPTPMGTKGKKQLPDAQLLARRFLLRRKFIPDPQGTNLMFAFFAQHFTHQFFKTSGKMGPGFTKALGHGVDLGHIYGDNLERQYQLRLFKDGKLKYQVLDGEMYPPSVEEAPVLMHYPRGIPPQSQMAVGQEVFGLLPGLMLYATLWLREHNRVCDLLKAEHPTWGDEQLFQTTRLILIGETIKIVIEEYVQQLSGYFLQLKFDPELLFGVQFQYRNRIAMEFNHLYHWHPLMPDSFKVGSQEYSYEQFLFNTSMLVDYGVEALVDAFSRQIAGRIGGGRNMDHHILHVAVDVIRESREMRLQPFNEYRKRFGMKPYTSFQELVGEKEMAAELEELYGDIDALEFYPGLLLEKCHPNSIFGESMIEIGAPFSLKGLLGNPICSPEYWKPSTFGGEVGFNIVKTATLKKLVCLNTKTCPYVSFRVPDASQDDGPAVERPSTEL

Consider `CN(C)c1ccc(Nc2nc(-c3ccncc3)nc3c2CC(N)CC3)cc1` (stereo unspecified), for which the pIC50 (as a rule, the negative decadic logarithm of the IC50, by convention in mol/L) was 5.40.
